Results taken from ChEMBL document CHEMBL1201862, “PubChem BioAssay data set” (2004).
Values joined by “and” are separate entries in the source; they are usually repeats but may differ in a detail not shown here. Identical values can stand only once.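 48-hour exposure; five concentrations; linearly interpolated endpoints. GI50 marks 50% less growth.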 Active and inactive are the calls of the source. Cut-off read from the data, not from the text of the source: active = GI50 up to about 1.1 µM and inactive = higher.

Experiments:
Assay in all cases: NCI anticancer screen, dose series, 48 h
A498 = tested on: A498
BT-549 = tested on: BT-549
KM12 = tested on: KM12
LOX IMVI = tested on: LOX IMVI
M14 = tested on: M14
MCF7 = tested on: MCF7
MDA-MB-231 = tested on: MDA-MB-231
MDA-MB-435 = tested on: MDA-MB-435
MOLT-4 = tested on: MOLT-4
Malme-3M = tested on: Malme-3M
NCI/ADR-RES = tested on: NCI/ADR-RES
OVCAR-5 = tested on: OVCAR-5
SK-MEL-2 = tested on: SK-MEL-2
SK-OV-3 = tested on: SK-OV-3
SNB-75 = tested on: SNB-75
U-251 = tested on: U-251
UACC-257 = tested on: UACC-257
UACC-62 = tested on: UACC-62
NCI-H226 = tested on: NCI-H226
RPMI-8226 = tested on: RPMI-8226

Row | SMILES | GI50 (A498) | GI50 (BT-549) | GI50 (KM12) | GI50 (LOX IMVI) | GI50 (M14) | GI50 (MCF7) | GI50 (MDA-MB-231) | GI50 (MDA-MB-435) | GI50 (MOLT-4) | GI50 (Malme-3M) | GI50 (NCI/ADR-RES) | GI50 (OVCAR-5) | GI50 (SK-MEL-2) | GI50 (SK-OV-3) | GI50 (SNB-75) | GI50 (U-251) | GI50 (UACC-257) | GI50 (UACC-62) | GI50 (NCI-H226) | GI50 (RPMI-8226)
1 | COc1nc(C#CC(C)(C)C)nc(OC)n1 | 41.9 µM (inactive) | 31.9 µM (inactive) | 18.2 µM (inactive) | 16.6 µM (inactive) | 36.6 µM (inactive) | 19 µM (inactive) | 20.9 µM (inactive) | 15 µM (inactive) | 35.6 µM (inactive) | 19 µM (inactive) | 21 µM (inactive) | 21.2 µM (inactive) | 30.3 µM (inactive) | 55 µM (inactive) | 33.6 µM (inactive) | 39.2 µM (inactive) | 48.3 µM (inactive) | 14.8 µM (inactive) | – | –
2 | COc1ccc(Cn2c3c(cc(OS(=O)(=O)C(F)(F)F)c2=O)Cc2ccccc2-3)cc1 | > 50 µM (inactive) | 24.9 µM (inactive) | 26.4 µM (inactive) | 10 µM (inactive) | 6.65 µM (inactive) | – | > 50 µM (inactive) | 19.3 µM (inactive) | 12 µM (inactive) | 16.2 µM (inactive) | 2.29 µM (inactive) | 20.3 µM (inactive) | 45.6 µM (inactive) | 25.1 µM (inactive) | > 50 µM (inactive) | 19.2 µM (inactive) | 11.9 µM (inactive) | 10.5 µM (inactive) | 26.7 µM (inactive) | 32.8 µM (inactive)
3 | CC(=O)OC1OC(C2c3cccc(O)c3C(=O)c3c(O)cc(CO)cc32)C(O)C(O)C1O (stereo not drawn) | 6.34 µM (inactive) | 4.66 µM (inactive) and 5.7 µM (inactive) | – | 2.87 µM (inactive) and 3.03 µM (inactive) | 10.5 µM (inactive) and 9.42 µM (inactive) | 5.04 µM (inactive) and 4.75 µM (inactive) | – | 3.72 µM (inactive) and 3.19 µM (inactive) | 4.13 µM (inactive) and 4.58 µM (inactive) | 4.39 µM (inactive) and 3.45 µM (inactive) | 3.88 µM (inactive) and 2.93 µM (inactive) | 3.94 µM (inactive) and 2.4 µM (inactive) | 2.32 µM (inactive) and 2.74 µM (inactive) | 4.14 µM (inactive) and 2.62 µM (inactive) | 3.27 µM (inactive) and 5.27 µM (inactive) | 3.66 µM (inactive) | 6.47 µM (inactive) and 7.45 µM (inactive) | 4.22 µM (inactive) and 4.29 µM (inactive) | – | –
4 | CSc1c([S+](C)[O-])c2ccccc2n1C (stereo not drawn) | > 100 µM (inactive) | – | > 100 µM (inactive) | > 100 µM (inactive) | > 100 µM (inactive) | > 100 µM (inactive) | > 100 µM (inactive) | > 100 µM (inactive) | > 100 µM (inactive) | > 100 µM (inactive) | > 100 µM (inactive) | > 100 µM (inactive) | > 100 µM (inactive) | > 100 µM (inactive) | 10.8 µM (inactive) | – | > 100 µM (inactive) | > 100 µM (inactive) | > 100 µM (inactive) | > 100 µM (inactive)
5 | CC(=O)CC(C)(C)NC(=O)[C@@]1(O)CC[C@H]2[C@@H]3CCC4=CC(=O)CC[C@@H]4[C@H]3CC[C@@]21C | > 100 µM (inactive) | > 100 µM (inactive) | > 100 µM (inactive) | > 100 µM (inactive) | > 100 µM (inactive) | – | > 100 µM (inactive) | > 100 µM (inactive) | 56.4 µM (inactive) | > 100 µM (inactive) | > 100 µM (inactive) | > 100 µM (inactive) | > 100 µM (inactive) | > 100 µM (inactive) | > 100 µM (inactive) | > 100 µM (inactive) | > 100 µM (inactive) | > 100 µM (inactive) | > 100 µM (inactive) | > 100 µM (inactive)
6 | CCN(CC)c1c(-c2c(N(CC)CC)c(OC(C)=O)c3sccn3c2=O)c(=O)n2ccsc2c1OC(C)=O | > 100 µM (inactive) | 32 µM (inactive) | > 100 µM (inactive) | > 100 µM (inactive) | > 100 µM (inactive) | – | 21.1 µM (inactive) | > 100 µM (inactive) | > 100 µM (inactive) | > 100 µM (inactive) | 49.5 µM (inactive) | > 100 µM (inactive) | 93.8 µM (inactive) | 73.3 µM (inactive) | 19.4 µM (inactive) | 37.5 µM (inactive) | > 100 µM (inactive) | 81.7 µM (inactive) | 44.4 µM (inactive) | > 100 µM (inactive)
7 | Cc1cn2c(/C=C3/C(=O)Nc4ccccc43)c(C)nc2s1 | 1.33 µM (inactive) | 3.95 µM (inactive) | 0.261 µM (active) | 3.46 µM (inactive) | 0.991 µM (active) | 0.547 µM (active) | 1.48 µM (inactive) | 0.138 µM (active) | 0.581 µM (active) | 2.61 µM (inactive) | 2.39 µM (inactive) | 6.55 µM (inactive) | 1.32 µM (inactive) | 3.15 µM (inactive) | 3.79 µM (inactive) | 2.24 µM (inactive) | 2.78 µM (inactive) | 1.33 µM (inactive) | – | 1.75 µM (inactive)
